The NIST ThermoML archive (doi:10.1021/acs.jced.8b00684)
± gives the expanded uncertainty stated by the source.

Assay: xn = mol fraction of the nth substance listed
Conditions: 100 kPa, Liquid, Falling or rolling sphere viscometry

Q: With `CCCCCCn1cc[n+](C)c1.F[B-](F)(F)F` [1-hexyl-3-methylimidazolium tetrafluoroborate] + CC#N as the compound, how does the viscosity (293.15 K, x1 = 0.104) read?
A: 1.15 ± 0.05 mPa·s

Q: What about the viscosity (293.15 K, x1 = 0.2049) of the same compound?
A: 2.43 ± 0.1 mPa·s

Q: What about the viscosity (293.15 K, x1 = 0.2948) of the same compound?
A: 4.79 ± 0.2 mPa·s

Q: What about the viscosity (293.15 K, x1 = 0.4066) of the same compound?
A: 10.5 ± 0.4 mPa·s

Q: And the viscosity (293.15 K, x1 = 0.4616)?
A: 14.9 ± 0.6 mPa·s

Q: What about the viscosity (293.15 K, x1 = 0.5697) of the same compound?
A: 29.1 ± 1.2 mPa·s

Q: And the viscosity (293.15 K, x1 = 0.6626)?
A: 50 ± 2 mPa·s

Q: And the viscosity (293.15 K, x1 = 0.8083)?
A: 112 ± 5 mPa·s

Q: What about the viscosity (293.15 K, x1 = 0.9044) of the same compound?
A: 184 ± 10 mPa·s

Q: What about the viscosity (293.15 K, x1 = 1) of the same compound?
A: 293 ± 20 mPa·s

Q: And the viscosity (298.15 K, x1 = 0.104)?
A: 1.05 ± 0.04 mPa·s

Q: What about the viscosity (298.15 K, x1 = 0.2049) of the same compound?
A: 2.26 ± 0.09 mPa·s

Q: And the viscosity (298.15 K, x1 = 0.2948)?
A: 4.32 ± 0.18 mPa·s

Q: What about the viscosity (298.15 K, x1 = 0.4066) of the same compound?
A: 9.04 ± 0.37 mPa·s

Q: And the viscosity (298.15 K, x1 = 0.4616)?
A: 12.7 ± 0.5 mPa·s

Q: And the viscosity (298.15 K, x1 = 0.5697)?
A: 24 ± 1 mPa·s

Q: What about the viscosity (298.15 K, x1 = 0.6626) of the same compound?
A: 40.3 ± 1.6 mPa·s

Q: And the viscosity (298.15 K, x1 = 0.8083)?
A: 86.4 ± 3.8 mPa·s

Q: What about the viscosity (298.15 K, x1 = 0.9044) of the same compound?
A: 139 ± 7 mPa·s

Q: What about the viscosity (298.15 K, x1 = 1) of the same compound?
A: 216 ± 13 mPa·s

Q: What about the viscosity (303.15 K, x1 = 0.104) of the same compound?
A: 0.99 ± 0.04 mPa·s

Q: And the viscosity (303.15 K, x1 = 0.2049)?
A: 2.08 ± 0.09 mPa·s

Q: What about the viscosity (303.15 K, x1 = 0.2948) of the same compound?
A: 3.89 ± 0.16 mPa·s

Q: And the viscosity (303.15 K, x1 = 0.4066)?
A: 7.92 ± 0.32 mPa·s

Q: What about the viscosity (303.15 K, x1 = 0.4616) of the same compound?
A: 11 ± 0.5 mPa·s

Q: What about the viscosity (303.15 K, x1 = 0.5697) of the same compound?
A: 20.1 ± 0.8 mPa·s

Q: What about the viscosity (303.15 K, x1 = 0.6626) of the same compound?
A: 32.8 ± 1.3 mPa·s

Q: And the viscosity (303.15 K, x1 = 0.8083)?
A: 67.7 ± 2.8 mPa·s

Q: And the viscosity (303.15 K, x1 = 0.9044)?
A: 106 ± 5 mPa·s

Q: And the viscosity (303.15 K, x1 = 1)?
A: 163 ± 9 mPa·s

Q: And the viscosity (313.15 K, x1 = 0.104)?
A: 0.87 ± 0.04 mPa·s

Q: What about the viscosity (313.15 K, x1 = 0.2049) of the same compound?
A: 1.79 ± 0.07 mPa·s

Q: And the viscosity (313.15 K, x1 = 0.2948)?
A: 3.21 ± 0.13 mPa·s

Q: What about the viscosity (313.15 K, x1 = 0.4066) of the same compound?
A: 6.19 ± 0.25 mPa·s

Q: And the viscosity (313.15 K, x1 = 0.4616)?
A: 8.36 ± 0.34 mPa·s

Q: And the viscosity (313.15 K, x1 = 0.5697)?
A: 14.6 ± 0.6 mPa·s

Q: And the viscosity (313.15 K, x1 = 0.6626)?
A: 22.8 ± 0.9 mPa·s

Q: What about the viscosity (313.15 K, x1 = 0.8083) of the same compound?
A: 43.9 ± 1.8 mPa·s

Q: What about the viscosity (313.15 K, x1 = 0.9044) of the same compound?
A: 65.9 ± 2.7 mPa·s

Q: What about the viscosity (313.15 K, x1 = 1) of the same compound?
A: 96.7 ± 4.3 mPa·s

Q: And the viscosity (323.15 K, x1 = 0.104)?
A: 0.78 ± 0.03 mPa·s

Q: What about the viscosity (323.15 K, x1 = 0.2049) of the same compound?
A: 1.56 ± 0.06 mPa·s

Q: And the viscosity (323.15 K, x1 = 0.2948)?
A: 2.69 ± 0.11 mPa·s

Q: And the viscosity (323.15 K, x1 = 0.4066)?
A: 4.98 ± 0.2 mPa·s

Q: And the viscosity (323.15 K, x1 = 0.4616)?
A: 6.58 ± 0.27 mPa·s

Q: What about the viscosity (323.15 K, x1 = 0.5697) of the same compound?
A: 11 ± 0.5 mPa·s

Q: What about the viscosity (323.15 K, x1 = 0.6626) of the same compound?
A: 16.6 ± 0.7 mPa·s

Q: And the viscosity (323.15 K, x1 = 0.8083)?
A: 30.1 ± 1.2 mPa·s

Q: What about the viscosity (323.15 K, x1 = 0.9044) of the same compound?
A: 43.5 ± 1.8 mPa·s

Q: What about the viscosity (323.15 K, x1 = 1) of the same compound?
A: 61.8 ± 2.5 mPa·s

Q: What about the viscosity (333.15 K, x1 = 0.104) of the same compound?
A: 0.71 ± 0.03 mPa·s

Q: What about the viscosity (333.15 K, x1 = 0.2049) of the same compound?
A: 1.37 ± 0.06 mPa·s

Q: What about the viscosity (333.15 K, x1 = 0.2948) of the same compound?
A: 2.3 ± 0.09 mPa·s

Q: And the viscosity (333.15 K, x1 = 0.4066)?
A: 4.1 ± 0.17 mPa·s

Q: And the viscosity (333.15 K, x1 = 0.4616)?
A: 5.32 ± 0.22 mPa·s

Q: And the viscosity (333.15 K, x1 = 0.5697)?
A: 8.58 ± 0.35 mPa·s

Q: And the viscosity (333.15 K, x1 = 0.6626)?
A: 12.5 ± 0.5 mPa·s

Q: And the viscosity (333.15 K, x1 = 0.8083)?
A: 21.7 ± 0.9 mPa·s

Q: What about the viscosity (333.15 K, x1 = 0.9044) of the same compound?
A: 30.4 ± 1.2 mPa·s

Q: What about the viscosity (333.15 K, x1 = 1) of the same compound?
A: 41.9 ± 1.7 mPa·s

Q: And the viscosity (343.15 K, x1 = 0.104)?
A: 0.65 ± 0.03 mPa·s

Q: What about the viscosity (343.15 K, x1 = 0.2049) of the same compound?
A: 1.22 ± 0.05 mPa·s

Q: What about the viscosity (343.15 K, x1 = 0.2948) of the same compound?
A: 1.99 ± 0.08 mPa·s

Q: And the viscosity (343.15 K, x1 = 0.4066)?
A: 3.43 ± 0.14 mPa·s

Q: What about the viscosity (343.15 K, x1 = 0.4616) of the same compound?
A: 4.38 ± 0.18 mPa·s

Q: And the viscosity (343.15 K, x1 = 0.5697)?
A: 6.85 ± 0.28 mPa·s

Q: What about the viscosity (343.15 K, x1 = 0.6626) of the same compound?
A: 9.75 ± 0.4 mPa·s

Q: And the viscosity (343.15 K, x1 = 0.8083)?
A: 16.2 ± 0.7 mPa·s

Q: And the viscosity (343.15 K, x1 = 0.9044)?
A: 22.1 ± 0.9 mPa·s

Q: And the viscosity (343.15 K, x1 = 1)?
A: 29.5 ± 1.2 mPa·s
